These results are taken from patent publication US9144239B2, “Macrocyclic picolinamides as fungicides” (DOW AGROSCIENCES LLC, priority 2012, dated 2015).

Read-outs that look alike come from different tables or passages of the source.

Type in all cases: in vivo
Assay [1] has as its system Puccinia triticina; synonym: Puccinia recondita f. sp. tritici. Description: Fungicide mobility (dropline mobility test): wheat brown rust (PUCCRT). The conditions noted are these: 1 ug/leaf. A digest of the protocol:
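A 2 μl drop of formulated compound (EC blank, 110 ppm Triton X-100 water) was applied to a line 5 cm from the tip of primary leaves of "Yuma" wheat seedlings, 6 replicates. Inoculation with PUCCRT was done 1 day after or 3 days before application. Once disease was fully expressed on controls, the acropetal disease-free zone was measured as percent of line-to-tip distance.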

Assay [2] has as its system Blumeria graminis f.sp. hordei; synonym: Erysiphe graminis f.sp. hordei. As to the kind of experiment: Fungicidal activity: barley powdery mildew (ERYSGH). The conditions noted are these: 24 h, 1 Day Protectant, read-out: Disease Control ERYSGH 1DP. Here is the method:
Technical grades of materials were dissolved in acetone, which were then mixed with nine volumes of water containing 110 ppm Triton X-100. The fungicide solutions were applied onto wheat seedlings using an automated booth sprayer to run-off. All sprayed plants were allowed to air dry prior to further handling. Wheat plants (variety Yuma) were grown from seed in a greenhouse in 50% mineral soil/50% soil-less Metro mix until the first leaf was fully emerged, with 7-10 seedlings per pot. These plants were inoculated with an aqueous spore suspension of Septoria tritici either prior to or after fungicide treatments. After inoculation the plants were kept in 100% relative humidity (one day in a dark dew chamber followed by two to three days in a lighted dew chamber at 20° C.) to permit spores to germinate and infect the leaf. The plants were then transferred to a greenhouse set at 20° C. for disease to develop. When disease symptoms were fully expressed on the 1st leaves of untreated plants, infection levels were assessed on a scale of 0 to 100 percent disease severity. Percent disease control was calculated using the ratio of disease severity on treated plants relative to untreated plants. Evaluation of Fungicidal Activity: Barley Powdery Mildew (Blumeria graminis f.sp. hordei; Synonym: Erysiphe graminis f.sp. hordei; Bayer Code […]) Barley seedlings (variety Harrington) were propagated in soil-less Metro mix, with each pot having 8 to 12 plants, and used in the test when first leaf was fully emerged. Test plants were inoculated by dusting with infected stock plants 24 hr after fungicide treatments. After inoculation the plants were kept in a greenhouse set at 20° C. for disease to develop. Fungicide formulation, application and disease assessment on the sprayed leaves followed the procedures as described in the Example A.

The next assay has as its system Uncinula necator. As to the kind of experiment: Fungicidal activity: grape powdery mildew (UNCINE). Conditions: Erysiphe necator, 24 h, 1 Day Protectant, read-out: Disease Control UNCINE 1 DP. As to the method: Technical grades of materials were dissolved in acetone, which were then mixed with nine volumes of water containing 110 ppm Triton X-100. The fungicide solutions were applied onto wheat seedlings using an automated booth sprayer to run-off. All sprayed plants were allowed to air dry prior to further handling. Wheat plants (variety Yuma) were grown from seed in a greenhouse in 50% mineral soil/50% soil-less Metro mix until the first leaf was fully emerged, with 7-10 seedlings per pot. These plants were inoculated with an aqueous spore suspension of Septoria tritici either prior to or after fungicide treatments. After inoculation the plants were kept in 100% relative humidity (one day in a dark dew chamber followed by two to three days in a lighted dew chamber at 20° C.) to permit spores to germinate and infect the leaf. The plants were then transferred to a greenhouse set at 20° C. for disease to develop. When disease symptoms were fully expressed on the 1st leaves of untreated plants, infection levels were assessed on a scale of 0 to 100 percent disease severity. Percent disease control was calculated using the ratio of disease severity on treated plants relative to untreated plants. Evaluation of Fungicidal Activity: Grape Powdery Mildew (Uncinula necator; Bayer Code […]) Grape seedlings (variety Carignane) were grown in soil-less Metro mix, with one plant per pot, and used in the test when approximately one month old. Plants were inoculated 24 hr after fungicide treatment by shaking spores from infected leaves over test plants. Plants were maintained in a greenhouse set at 20° C. until disease was fully developed. Fungicide formulation, application and disease assessment on the sprayed leaves followed the procedures as described in the Example A.

The test system of another assay is Erysiphe cichoracearum. Description: Fungicidal activity: powdery mildew of cucumber (ERYSCI). The conditions noted are these: Golovinomyces cichoracearum, 24 h, 1 Day Protectant, read-out: Disease Control ERYSCI 1DP. As to the method: Technical grades of materials were dissolved in acetone, which were then mixed with nine volumes of water containing 110 ppm Triton X-100. The fungicide solutions were applied onto wheat seedlings using an automated booth sprayer to run-off. All sprayed plants were allowed to air dry prior to further handling. Wheat plants (variety Yuma) were grown from seed in a greenhouse in 50% mineral soil/50% soil-less Metro mix until the first leaf was fully emerged, with 7-10 seedlings per pot. These plants were inoculated with an aqueous spore suspension of Septoria tritici either prior to or after fungicide treatments. After inoculation the plants were kept in 100% relative humidity (one day in a dark dew chamber followed by two to three days in a lighted dew chamber at 20° C.) to permit spores to germinate and infect the leaf. The plants were then transferred to a greenhouse set at 20° C. for disease to develop. When disease symptoms were fully expressed on the 1st leaves of untreated plants, infection levels were assessed on a scale of 0 to 100 percent disease severity. Percent disease control was calculated using the ratio of disease severity on treated plants relative to untreated plants. Evaluation of Fungicidal Activity: Powdery Mildew of Cucumber (Erysiphe cichoracearum; Bayer Code […]) Cucumber seedlings (variety Bush Pickle) were grown in soil-less Metro mix, with one plant per pot, and used in the test when 12 to 14 days old. Plants were inoculated with a spore suspension 24 hr following fungicide treatments. After inoculation the plants remained in the greenhouse set at 20° C. until disease was fully expressed. Fungicide formulation, application and disease assessment on the sprayed leaves followed the procedures as described in the Example A.

The test system of a further assay is Phakopsora pachyrhizi. As to the kind of experiment: Fungicidal activity: Asian soybean rust (PHAKPA). Conditions: 25 ppm; for Disease Control PHAKPA 1DP: 1 Day Protectant; for Disease Control PHAKPA 3DC: 3 Day Curative. As to the method:
Evaluation of Fungicidal Activity: Asian Soybean Rust (Phakopsora pachyrhizi; Bayer Code […]) Technical grades of materials were dissolved in acetone, which were then mixed with nine volumes of water containing 0.011% Tween 20. The fungicide solutions were applied onto soybean seedlings using an automated booth sprayer to run-off. All sprayed plants were allowed to air dry prior to further handling. Soybean plants (variety Williams 82) were grown in soil-less Metro mix, with one plant per pot. Two weeks old seedlings were used for testing. […] Plants were incubated for 24 h in a dark dew room at 22° C. and 100% RH then transferred to a growth room at 23° C. for disease to develop. Disease severity was assessed on the sprayed leaves.

Where [3] appears, read: 24 h, 1 Day Protectant Mobility, read-out: Dropline Mobility Test PUCCRT 1DPM.
[4] abbreviates: 72 h, 3 Day Curative Mobility, read-out: Dropline Mobility Test PUCCRT 3DCM.

As to `COc1ccnc(C(=O)NC2COC[C@H](OCc3ccccc3)[C@@H](OCc3ccccc3)[C@H](C)OC2=O)c1OCOC(C)=O` (some centres unmarked) [Compound 12], the pest or weed control at 1 µg/leaf in assay [1] (setting [3]) and in assay [1] (setting [4]) was 0 to 80% throughout. In addition, the pest or weed control at 100 ppm (in assay [2]; in the assay on Uncinula necator) was 0 to 80% each time.

As to `COc1ccnc(C(=O)N[C@H]2COC[C@H](OCC(C)C)[C@@H](Oc3ccccc3)[C@H](C)OC2=O)c1OCOC(C)=O` [Compound 85], the pest or weed control at 1 µg/leaf in assay [1] (setting [3]) and in assay [1] (setting [4]) was 80 to 100% in each case. For the same compound, the pest or weed control at 100 ppm in assay [2] lay within 0 to 80%; in the assay on Erysiphe cichoracearum it was 0 to 80%; in the assay on Uncinula necator, 80 to 100%.

In the case of `CCCCO[C@H]1COC[C@H](NC(=O)c2nccc(OC)c2OCOC(C)=O)C(=O)O[C@@H](C)[C@@H]1OCC(F)F` [Compound 55], the pest or weed control at 100 ppm with Uncinula necator fell in the range of 0 to 80%.

As to `COc1ccnc(C(=O)N[C@H]2COC[C@H](OC(=O)C(C)C)[C@@H](OC(=O)C(C)C)[C@H](C)OC2=O)c1OCOC(C)=O` [Compound 57], the pest or weed control at 100 ppm (in assay [2]; in the assay on Erysiphe cichoracearum; in the assay on Uncinula necator) was 0 to 80% in each case.

As to `CCCO[C@H]1COC[C@H](NC(=O)c2nccc(OC)c2OCOC(C)=O)C(=O)O[C@@H](C)[C@@H]1Oc1ccccc1` [Compound 221], in the assay with Phakopsora pachyrhizi, the “Disease Control PHAKPA 1DP” value was “A (80-100)” and the “Disease Control PHAKPA 3DC” value is reported as “A (80-100)”.

With `COc1ccnc(C(=O)N[C@H]2COC[C@H](OCC(C)C)[C@@H](OC3CCCCC3)[C@H](C)OC2=O)c1OCOC(C)=O` [Compound 77], the pest or weed control at 1 µg/leaf in assay [1] (setting [3]) is 80 to 100%; in assay [1] (setting [4]) it was 0 to 80%. For the same compound, the “Disease Control PHAKPA 1DP” value with Phakopsora pachyrhizi was “B (More than 0-Less than 80)”. For the same compound, the pest or weed control at 100 ppm in assay [2] is 0 to 80%; with Erysiphe cichoracearum, 0 to 80%; in the assay on Uncinula necator, 80 to 100%.

`CCCCO[C@H]1COC[C@H](NC(=O)c2nccc(OC)c2OCOC(C)=O)C(=O)O[C@@H](C)[C@@H]1OCCOC` [Compound 54]: the pest or weed control at 100 ppm (in assay [2]; with Uncinula necator) was 0 to 80% each time.

As for `COc1ccnc(C(=O)N[C@H]2COC[C@H](OCC(C)C)[C@@H](OCC(C)C)[C@H](C)OC2=O)c1OCOC(C)=O` [Compound 3, (2-((3S,7S,8S,9S)-7,8-diisobutoxy-9-methyl-2-oxo-1,5-dioxonan-3-ylcarbamoyl)-4-methoxypyridin-3-yloxy)methyl], the pest or weed control at 1 µg/leaf in assay [1] (setting [3]) and in assay [1] (setting [4]) was 80 to 100% each time. The “Disease Control PHAKPA 1DP” value in the assay on Phakopsora pachyrhizi was “A (80-100)”. For the same compound, the values for the pest or weed control at 100 ppm (in assay [2]; in the assay with Erysiphe cichoracearum; in the assay with Uncinula necator) were 80 to 100%, 0 to 80% and 80 to 100%, respectively.

Turning to `COc1ccnc(C(=O)N[C@H]2COC[C@H](Oc3ccccc3)[C@@H](Oc3ccccc3)[C@H](C)OC2=O)c1OCOC(C)=O` [Compound 84], the pest or weed control at 1 µg/leaf in assay [1] (setting [3]) was 80 to 100%. For the same compound, in the assay on Phakopsora pachyrhizi, the “Disease Control PHAKPA 1DP” value is reported as “A (80-100)”. For the same compound, the “Disease Control PHAKPA 3DC” value with Phakopsora pachyrhizi was “A (80-100)”. Besides, the pest or weed control at 100 ppm (in assay [2]; in the assay with Erysiphe cichoracearum; in the assay with Uncinula necator) was 0 to 80% each time.

With `COc1ccnc(C(=O)N[C@H]2COC[C@H](OCCCc3ccccc3)[C@@H](OCCCc3ccccc3)[C@H](C)OC2=O)c1OCOC(C)=O` [Compound 60], in assay [1] (setting [3]), the pest or weed control at 1 µg/leaf lay in the range of 0 to 80%.

Regarding `COc1ccnc(C(=O)N[C@H]2COC[C@H](Oc3ccc(F)cc3)[C@@H](Oc3ccc(F)cc3)[C@H](C)OC2=O)c1OCOC(C)=O` [Compound 231], the results for the pest or weed control at 100 ppm (in assay [2]; with Erysiphe cichoracearum; with Uncinula necator) were 0 to 80%, 0 to 80% and 80 to 100%, respectively.

`CCC(C)(C)O[C@H]1COC[C@H](NC(=O)c2nccc(OC)c2OCOC(C)=O)C(=O)O[C@@H](C)[C@@H]1OCC(C)C` [Compound 78]: the pest or weed control at 1 µg/leaf in assay [1] (setting [3]) and in assay [1] (setting [4]) was 0 to 80% throughout. Further, in the assay with Phakopsora pachyrhizi, the “Disease Control PHAKPA 1DP” value is given as “A (80-100)”. The figures for the pest or weed control at 100 ppm (in assay [2]; in the assay with Erysiphe cichoracearum; in the assay on Uncinula necator) were 0 to 80%, 80 to 100% and 80 to 100%, respectively.

Take `COc1ccnc(C(=O)N[C@H]2COC[C@H](OCC(C)C)[C@@H](OCC(C)C)[C@H](C)OC2=O)c1OCOC(=O)C(C)C` [Compound 2]: the pest or weed control at 1 µg/leaf in assay [1] (setting [3]) and in assay [1] (setting [4]) was 80 to 100% in each case. Further, the pest or weed control at 100 ppm (in assay [2]; in the assay with Erysiphe cichoracearum) was 80 to 100% each time.

As to `CCCO[C@H]1[C@H](C)OC(=O)[C@@H](NC(=O)c2nccc(OC)c2OCOC(C)=O)COC[C@@H]1Oc1ccccc1` [Compound 222], in the assay with Phakopsora pachyrhizi, the “Disease Control PHAKPA 1DP” value is given as “A (80-100)” and the “Disease Control PHAKPA 3DC” value is reported as “A (80-100)”.

For the compound `COc1ccnc(C(=O)N[C@H]2COC[C@H](OCCCC(F)(F)F)[C@@H](OCCCC(F)(F)F)[C@H](C)OC2=O)c1OCOC(C)=O` [Compound 68], the pest or weed control at 1 µg/leaf in assay [1] (setting [3]) and in assay [1] (setting [4]) was 0 to 80% throughout. Also, the pest or weed control at 100 ppm (in assay [2]; with Erysiphe cichoracearum; with Uncinula necator) was 0 to 80% in each case.

Take `COc1ccnc(C(=O)N[C@H]2COC[C@H](Oc3ccc(F)cc3)[C@@H](Oc3ccc(F)cc3)[C@H](C)OC2=O)c1OC(C)=O` [Compound 229, 2-(((3S,7S,8S,9S)-7,8-bis(4-fluorophenoxy)-9-methyl-2-oxo-1,5-dioxonan-3-yl)carbamoyl)-4-methoxypyridin-3-yl acetate]: the pest or weed control at 100 ppm lay within 0 to 80% in assay [2], 0 to 80% in the assay on Erysiphe cichoracearum and 80 to 100% with Uncinula necator.

With `COc1ccnc(C(=O)N[C@H]2COC[C@H](OC)[C@@H](OC)[C@H](C)OC2=O)c1OCOC(C)=O` [Compound 65], the pest or weed control at 1 µg/leaf in assay [1] (setting [3]) and in assay [1] (setting [4]) was 0 to 80% each time. Besides, the pest or weed control at 100 ppm in the assay with Uncinula necator was in the range of 0 to 80%.
